Experimental data from PMC6325200, “Effects of Microplate Type and Broth Additives on Microdilution MIC Susceptibility Assays” (Antimicrobial Agents and Chemotherapy, 2018).

Legend:
[1] = tested on: E. coli; conditions: literature value; cited from earlier work
[2] = tested on: E. coli ATCC 25922; test: microbe, parasite or virus in culture; conditions: n = 2
Protocol: A positive control of a row of just the bacteria and a negative control of only the medium were included for every plate tested.
The compounds along with standard antibiotics were serially diluted 2-fold across the 96-well plates. […] A sample of each culture was then diluted 40-fold in fresh MH broth (in presence and absence of Tween) and incubated at 37°C for 2 to 3 h.
For experiments in the presence of surfactant, 2% beractant (25 mg/ml) was added to the mid-log-phase cultures and mixed gently and added to all the 96-well plates. For experiments in the presence of serum, a mixture of 50% of human serum along with 50% MHB was prepared and used throughout the experiment.

[3] = tested on: K. pneumoniae ATCC 13883; test: microbe, parasite or virus in culture; conditions: Klebsiella pneumoniae, n = 2
Procedure, shortened: (§1)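 Broth microdilution: 2-fold serial dilutions of test compounds plus reference antibiotics; inoculum = culture diluted 40x in MH broth ±Tween, 37°C, 2–3 h. Controls per plate: bacteria alone (positive), medium alone (negative).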

[4] = tested on: P. aeruginosa ATCC 10145; test: microbe, parasite or virus in culture; conditions: Pseudomonas aeruginosa, n = 2
Procedure, shortened: as §1

[5] = tested on: A. baumannii ATCC 19606; test: microbe, parasite or virus in culture; conditions: Acinetobacter baumannii, n = 2
Procedure, shortened: as §1

CC1(C)S[C@@H]2[C@H](NC(=O)Cc3ccccc3)C(=O)N2[C@H]1C(=O)O [Penicillin G, penicillin G]
64 µg/mL: MIC ([2]; Escherichia coli, ATCC25922, 24 h, Corning PS, MH + 2% LHB, no additive) | MIC ([2]; Escherichia coli, ATCC25922, 24 h, Corning PS, MH + T80, 50% HS) | MIC ([2]; Escherichia coli, ATCC25922, 24 h, Corning TC, MH + 2% LHB, no additive) | MIC ([2]; Escherichia coli, ATCC25922, 24 h, Corning TC, MH + T80, 50% HS) | MIC ([2]; Escherichia coli, ATCC25922, Corning NBS plate, MHB +0.002% T80, no further additive) | MIC ([2]; Escherichia coli, ATCC25922, Corning NBS plate, MHB −T80, no additive) | MIC ([2]; Escherichia coli, ATCC25922, Corning NBS, MH, 2% LS) | MIC ([2]; Escherichia coli, ATCC25922, Corning NBS, MH, 50% HS) | MIC ([2]; Escherichia coli, ATCC25922, Corning PS plate, MHB +0.002% T80, no further additive) | MIC ([2]; Escherichia coli, ATCC25922, Corning PS, MH, 50% HS) | MIC ([2]; Escherichia coli, ATCC25922, Corning TC plate, MHB +0.002% T80, no further additive) | MIC ([2]; Escherichia coli, ATCC25922, Corning TC, MH, 2% LS) | MIC ([2]; Escherichia coli, ATCC25922, Corning TC, MH, 50% HS) | MIC ([2]; Escherichia coli, ATCC25922, Nunc PS plate, MHB +0.002% T80) | MIC ([2]; Escherichia coli, ATCC25922, Nunc U TC plate, MHB +0.002% T80) | MIC ([2]; Escherichia coli, ATCC25922, Nunc flat TC plate, MHB +0.002% T80) | MIC ([2]; Escherichia coli, ATCC25922, Trek PS plate, MHB −T80, no additive) | MIC ([2]; Escherichia coli, ATCC25922, Trek PS, MH, 2% LS)
> 64 µg/mL: MIC ([3]; ATCC13883, Corning NBS, MHB +T80) | MIC ([3]; ATCC13883, Corning NBS, MHB -T80) | MIC ([3]; ATCC13883, Corning PS, MHB +T80) | MIC ([3]; ATCC13883, Corning PS, MHB -T80) | MIC ([3]; ATCC13883, Corning TC, MHB +T80) | MIC ([3]; ATCC13883, Corning TC, MHB -T80) | MIC ([4]; ATCC10145, Corning NBS, MHB +T80) | MIC ([4]; ATCC10145, Corning NBS, MHB -T80) | MIC ([4]; ATCC10145, Corning PS, MHB +T80) | MIC ([4]; ATCC10145, Corning PS, MHB -T80) | MIC ([4]; ATCC10145, Corning TC, MHB +T80) | MIC ([4]; ATCC10145, Corning TC, MHB -T80) | MIC ([5]; ATCC19606, Corning NBS, MHB +T80) | MIC ([5]; ATCC19606, Corning NBS, MHB -T80) | MIC ([5]; ATCC19606, Corning PS, MHB +T80) | MIC ([5]; ATCC19606, Corning PS, MHB -T80) | MIC ([5]; ATCC19606, Corning TC, MHB +T80) | MIC ([5]; ATCC19606, Corning TC, MHB -T80)
32 to 64 µg/mL: MIC ([2]; Corning PS plate, MHB −T80, no additive) | MIC ([2]; Escherichia coli, ATCC25922, 24 h, Corning NBS, MH + 2% LHB, 2% LS) | MIC ([2]; Escherichia coli, ATCC25922, 24 h, Corning NBS, MH + 2% LHB, 50% HS) | MIC ([2]; Escherichia coli, ATCC25922, 24 h, Corning NBS, MH + 2% LHB, no additive) | MIC ([2]; Escherichia coli, ATCC25922, 24 h, Corning NBS, MH + T80, 50% HS) | MIC ([2]; Escherichia coli, ATCC25922, 24 h, Corning PS, MH + 2% LHB, 2% LS) | MIC ([2]; Escherichia coli, ATCC25922, 24 h, Corning PS, MH + T80, 2% LS) | MIC ([2]; Escherichia coli, ATCC25922, 24 h, Corning TC, MH + 2% LHB, 2% LS) | MIC ([2]; Escherichia coli, ATCC25922, 24 h, Corning TC, MH + 2% LHB, 50% HS) | MIC ([2]; Escherichia coli, ATCC25922, 24 h, Corning TC, MH + T80, 2% LS) | MIC ([2]; Escherichia coli, ATCC25922, Corning PS plate, MHB −T80, no additive) | MIC ([2]; Escherichia coli, ATCC25922, Nunc flat TC plate, MHB −T80) | MIC ([2]; Escherichia coli, ATCC25922, Trek PS plate, MHB +0.002% T80, no further additive) | MIC ([2]; Trek PS plate, MHB +0.002% T80, no further additive)
16–64 ([71]) µg/ml: MIC (literature) [1]
32 µg/mL: MIC ([2]; Escherichia coli, ATCC25922, 24 h, Corning NBS, MH + T80, 2% LS) | MIC ([2]; Escherichia coli, ATCC25922, 24 h, Trek PS, MH + 2% LHB, 2% LS) | MIC ([2]; Escherichia coli, ATCC25922, 24 h, Trek PS, MH + 2% LHB, 50% HS) | MIC ([2]; Escherichia coli, ATCC25922, 24 h, Trek PS, MH + 2% LHB, no additive) | MIC ([2]; Escherichia coli, ATCC25922, 24 h, Trek PS, MH + T80, 2% LS) | MIC ([2]; Escherichia coli, ATCC25922, 24 h, Trek PS, MH + T80, 50% HS) | MIC ([2]; Escherichia coli, ATCC25922, Corning TC plate, MHB −T80, no additive) | MIC ([2]; Escherichia coli, ATCC25922, Nunc PS plate, MHB −T80) | MIC ([2]; Escherichia coli, ATCC25922, Nunc U TC plate, MHB −T80)
